Publication PMC10606834, “Is the Neuropeptide PEN a Ligand of GPR83?” (International Journal of Molecular Sciences, 2023)
Entries after “also recorded” stand apart in the source; their conditions may differ.

Columns and labels:
[1] = tested on: GPR83 and GPR83del (HEK293 and U2OS clones; wild-type cells as comparison); test: Ligand-dependent cAMP formation; format: cell-based, human
Method: Production of cyclic adenosine monophosphate (cAMP) is a hallmark of GPCRs signaling via the Gs-induced pathway. To investigate the potential of PEN to stimulate cAMP production mediated by GPR83, levels of the second messenger were determined after incubation with PEN of various GPR83-overexpressing clones as well as wild-type HEK293 and U2OS cells.
Figure 3 Analysis of ligand-dependent, GPR83-mediated cAMP production. (A) Wild-type HEK293 and U2OS cells as well as various clones with confirmed overexpression of either GPR83 or the deletion variant GPR83del (both ± HA tag) were incubated with either buffer, 1 µM PEN, or 50 µM forskolin. (B) Selected GPR83-overexpressing HEK293 clones were assayed for cAMP production using different concentrations of PEN. (C) Selected GPR83-overexpressing U2OS clones were assayed for cAMP production using different concentrations of PEN.
To measure intracellular cAMP production, the LANCE Ultra cAMP kit (Perkin Elmer) was used according to the manufacturer’s instructions. The day before the experiment, cells were seeded onto a 96-well plate with approximately 80% confluence. After 16–24 h, the medium was removed, and 100 μL/well of serum-free medium was added, followed by a 3 h incubation. Thereafter, medium was removed, and 40 μL of ligand dissolved in cAMP stimulation buffer was pipetted onto cells, then incubated for 10 min. The ligands used were pipetted in duplicate. For concentration–response curves, serial dilutions were carried out from the stock solutions of 1 mM to create a concentration range from 1 µM to 30 pM. As controls, 4 wells were treated with buffer only (negative control) and 4 wells with 50 μM forskolin (positive control). After a 10 min incubation, 10 μL of a 0.5% Triton-X 100 solution in PBS was added to each well. To lyse cells, the plate was shaken on a Vibramax 100 Shaker (Heidolph, Kelheim, Germany) (750 rpm) at room temperature for 10 min. A 10 μL volume of the cell lysates were transferred into a white 384 well plate (ProxiPlate, PerkinElmer). A 5 μL volume of the Europium-cAMP tracer (1 to 50 dilution of Eu-tracer stock in cAMP detection buffer) was added to each well. Next, 5 μL of the ULight-anti-cAMP solution (1 to 150 dilution of ULight-tracer stock in cAMP detection buffer) was added to each well. After a 1 h incubation period at room temperature in the dark, the TR-FRET signal was measured using an EnVision 2103 Multilabel Reader (Perkin Elmer).

[2] = tested on: ERK1/2 phosphorylation in wild-type HEK293 cells; test: ERK1/2 phosphorylation (immunoblot), wild-type cells; format: cell-based, human; conditions: 10 µM PEN #1, 15 min, n = 2
Text: Apart from G protein-mediated second messenger signaling via Ca^2+ and cAMP, GPCR stimulation may also lead to activation of β-arrestin and phosphorylation of extracellular signal-regulated kinases 1/2 (ERK1/2). Immunoblot analysis was employed to investigate ligand-dependent phosphorylation of ERK1/2 in HEK293 cells overexpressing GPR83 or the deletion variant GPR83del as well as in wild-type HEK293 cells.
Figure 4 Ligand-dependent phosphorylation of ERK1/2 and β-arrestin (TANGO) assay. (A) Immunoblot detection of phosphorylated (upper blot) and total (lower blot) ERK1/2 in lysates of HEK293 wild-type cells and in HEK293 cells overexpressing GPR83 or GPR83del. (B) Quantification (mean ± SD of n = 2 independent experiments) of chemiluminescent readout of the immunoblots shown in (A). (C) TANGO assay for ligand-induced β-arrestin activity in HTLA cells overexpressing GPR83 (relative light units, RLU). (D) TANGO assay for ligand-induced β-arrestin activity in HTLA cells overexpressing bradykinin receptor BDKBR2.
4.7. ERK1/2 Phosphorylation Assay
Effects of GPCR ligands on MAPK signaling were assessed with Western blot analysis of lysates from stimulated cells. The ERK1/2 activation assay was performed as described before. […] Blots were analyzed using densitometric quantification using Image Lab Software v4.1 (Bio-Rad).

AADHDVGSELPPEGVLGALLRV [PEN, batch #1 synthesized, batch #2 purchased from Phoenix Pharmaceuticals]
cAMP levels ([1]; 1 µM PEN or 50 µM forskolin, GPR83-overexpressing clones and wild-type HEK293 and U2OS cells, 10 min incubation, LANCE Ultra cAMP kit, TR-FRET competition, duplicate): did not change it
cAMP formation, concentration-response ([1]; titration 50 pM to 1 µM, selected GPR83-expressing HEK293 and U2OS clones, LANCE Ultra cAMP kit, TR-FRET, 10 min incubation, duplicate): did not indicate PEN-dependent cAMP formation
increased (via Gs) or decreased (via Gi) production of cAMP ([1]; up to 1 µM PEN, multiple clones of GPR83-overexpressing HEK293 and U2OS cells): did not reveal any evidence for an increased (via Gs) or decreased (via Gi) production of cAMP
phosphorylation of ERK1/2, wild-type HEK293 versus GPR83 or GPR83del cells [2]: equally strong ERK1/2 phosphorylation in wild-type HEK293 cells as well as in HEK293 cells overexpressing GPR83 or GPR83del; also recorded: also demonstrated a similar phosphorylation after incubation with PEN
